According to the NIST ThermoML archive (doi:10.1016/j.jct.2016.03.030):

Assay: molar heat capacity at constant pressure; xn = mol fraction of the nth substance listed
Conditions: 100 kPa, Liquid, Small sample (50 mg) DSC

CCCCC[N+]1(C)CCOCC1.[Br-] [4-methyl-4-pentylmorpholinium bromide] + O
molar heat capacity at constant pressure [J/K/mol]
Conditions | 298.15 K | 303.15 K | 308.15 K | 313.15 K | 318.15 K | 323.15 K | 328.15 K | 333.15 K | 338.15 K | 343.15 K
x1 = 0.0316 | 94.11 | 94.16 | 94.44 | 94.72 | 94.98 | 95.31 | 95.54 | 95.76 | 95.94 | 96.1
x1 = 0.0695 | 105.99 | 106.33 | 106.88 | 107.4 | 107.91 | 108.43 | 108.87 | 109.28 | 109.73 | 110.14
x1 = 0.1522 | 133.02 | 133.71 | 134.95 | 135.91 | 136.93 | 138.01 | 138.86 | 139.78 | 140.69 | 141.55
x1 = 0.2054 | 153.72 | 154.58 | 156.03 | 157.22 | 158.41 | 159.6 | 160.73 | 161.92 | 163.04 | 164.03
x1 = 0.219 | 149.69 | 150.59 | 151.97 | 153.29 | 154.54 | 155.79 | 156.96 | 158 | 159.04 | 160.08
x1 = 0.2438 | 159.53 | 160.5 | 161.93 | 163.21 | 164.56 | 165.91 | 167.26 | 168.39 | 169.59 | 170.72
x1 = 0.2754 | 165.68 | 166.67 | 168.15 | 169.64 | 170.96 | 172.28 | 173.51 | 174.92 | 176.15 | 177.39

CCCC[N+]1(C)CCOCC1.[Br-] [4-butyl-4-methylmorpholinium bromide] + O
molar heat capacity at constant pressure [J/K/mol]
Conditions | 298.15 K | 303.15 K | 308.15 K | 313.15 K | 318.15 K | 323.15 K | 328.15 K | 333.15 K | 338.15 K | 343.15 K
x1 = 0.0363 | 87.85 | 87.9 | 88.24 | 88.5 | 88.76 | 89.02 | 89.23 | 89.41 | 89.57 | 89.8
x1 = 0.0601 | 94.21 | 94.49 | 95.08 | 95.61 | 96.11 | 96.14 | 96.74 | 97.08 | 97.24 | 97.27
x1 = 0.1242 | 111.81 | 112.44 | 113.49 | 114.39 | 115.3 | 116.21 | 117.02 | 117.79 | 118.61 | 119.34
x1 = 0.2383 | 149.98 | 150.75 | 152.16 | 153.36 | 154.56 | 155.82 | 156.95 | 158.08 | 159.21 | 160.26
x1 = 0.2569 | 154.14 | 155.11 | 156.45 | 157.64 | 158.76 | 160.03 | 161.22 | 162.27 | 163.39 | 164.51
x1 = 0.3007 | 165.4 | 166.24 | 167.67 | 168.93 | 170.11 | 171.54 | 172.72 | 173.82 | 175 | 176.09

CCC[N+]1(C)CCOCC1.[Br-] [4-methyl-4-propylmorpholinium bromide] + O
molar heat capacity at constant pressure [J/K/mol]
Conditions | 298.15 K | 303.15 K | 308.15 K | 313.15 K | 318.15 K | 323.15 K | 328.15 K | 333.15 K | 338.15 K | 343.15 K
x1 = 0.0336 | 82.58 | 82.9 | 83.23 | 83.53 | 83.78 | 84.05 | 84.28 | 84.5 | 84.72 | 84.95
x1 = 0.0618 | 89.62 | 89.92 | 90.54 | 91.03 | 91.49 | 92.05 | 92.45 | 92.91 | 93.25 | 93.65
x1 = 0.1298 | 107.63 | 108.21 | 109.1 | 110 | 110.81 | 111.61 | 112.42 | 113.09 | 113.81 | 114.43
x1 = 0.2036 | 125.06 | 125.72 | 126.8 | 127.7 | 128.6 | 129.5 | 130.16 | 130.58 | 130.94 | 131.12
x1 = 0.2742 | 132.6 | 133.19 | 134.31 | 135.28 | 136.1 | 137.14 | 137.89 | 138.56 | 139.23 | 140.05
x1 = 0.3025 | 146.99 | 147.64 | 148.84 | 149.81 | 150.85 | 151.81 | 152.7 | 153.5 | 154.39 | 155.03
